Source: PMC9268153 (2022)

How the values were obtained:
[1] = system: c-myc AP sites (DNA, G4, abasic (d-spacer) at 7 and 16) TGAGGGNGGGGAGGGNGGGGAA; assay: ITC; details: 50 mM potassium phosphate (K+); 50 mM KH2PO4-K2HPO4 pH 7.0, 25 °C
[2] = system: G1-r23nt (RNA, G4) UAGGGUUAGGGUUAGGGUUAGGG; assay: CD melting; details: 5 mM KCl; 50 mM Tris-HCl pH 7.4; 4.5 μM compound, 1.5 μM nucleic acid
[3] = system: G1-r12nt (RNA, G4) UAGGGUUAGGGU; assay: CD melting; details: 100 mM KCl; 50 mM KH2PO4-K2HPO4 pH 7.0; 4.5 μM compound, 1.5 μM nucleic acid
[4] = system: Telomere G1 (Telomere G4) (DNA, G4) TAGGGTTAGGGTTAGGGTTAGGG; assay: CD melting; details: 100 mM KCl; 50 mM Tris-HCl pH 7.4; 4.5 μM compound, 1.5 μM nucleic acid
[5] = system: Telomere G1 (Telomere G4) (DNA, G4) TAGGGTTAGGGTTAGGGTTAGGG; assay: UV-Vis titration, Scatchard; details: 100 mM KCl; 50 mM Tris-HCl pH 7.4, 25 °C
[6] = system: c-kit (DNA, G4) AGGGAGGGCGCTGGGAGGAGGG; assay: CD spectral change; details: 100 mM KCl; 50 mM Tris-HCl pH 7.4, 25 °C; 1.5 μM DNA, up to 4.5 μM compound
[7] = system: ds-oligo (DNA, duplex) GGGAGGTTTCGC/GCGAAACCTCCC; assay: UV-Vis titration, Scatchard; details: 100 mM KCl; 50 mM Tris-HCl pH 7.4, 25 °C
[8] = system: Telomere G1 (Telomere G4) (DNA, G4) TAGGGTTAGGGTTAGGGTTAGGG; assay: ITC; details: 50 mM potassium phosphate (K+), 50 mM KH2PO4-K2HPO4 pH 7.0, 25 °C; for binding: n.d. (not detected), titrant up to 100 μM
[9] = system: ds-oligo (DNA, duplex) GGGAGGTTTCGC/GCGAAACCTCCC; assay: ITC; details: 50 mM potassium phosphate (K+); 50 mM KH2PO4-K2HPO4 pH 7.0, 25 °C; undetectable
[10] = system: G1-r23nt (RNA, G4) UAGGGUUAGGGUUAGGGUUAGGG; assay: ITC; details: 50 mM potassium phosphate (K+); 50 mM KH2PO4-K2HPO4 pH 7.0, 25 °C
[11] = system: G1-r12nt (RNA, G4) UAGGGUUAGGGU; assay: ITC; details: 50 mM potassium phosphate (K+); 50 mM KH2PO4-K2HPO4 pH 7.0, 25 °C

Ka [1] | ΔTm [2] [°C] | ΔTm [3] [°C] | ΔTm [4] [°C] | Ka [5] | binding [6] | Ka [7] | Ka [8] | binding [9] | Ka [10] | binding [8] | binding [11] | SMILES
2.9 ± 0.2 × 10^5 M^-1 | 19.9 ± 0.1 | 6.1 ± 0.4 | 5.1 ± 1.1 | 9.5 ± 0.9 × 10^5 M^-1 | yes | 3.9 ± 0.1 × 10^5 M^-1 | 9.5 ± 0.6 × 10^5 M^-1 | – | – | – | – | CN(C)CCCN1C(=O)c2ccc3c4c(ccc(c24)C1=O)C(=O)N(CCCN(C)C)C3=O
2.2 ± 0.3 × 10^5 M^-1 | 10.3 ± 0.3 | 2.1 ± 0.9 | < 0.5 | – | – | – | – | no | 19.0 ± 2.2 × 10^5 M^-1 | no | yes | CN(CCCN1C(=O)c2ccc3c4c(ccc(c24)C1=O)C(=O)N(CCCN(C)C[C@H]1O[C@@H]2O[C@H]4[C@H](O)[C@@H](O)[C@@H](O[C@H]5[C@H](O)[C@@H](O)[C@@H](O[C@H]6[C@H](O)[C@@H](O)[C@@H](O[C@H]7[C@H](O)[C@@H](O)[C@@H](O[C@H]8[C@H](O)[C@@H](O)[C@@H](O[C@H]9[C@H](O)[C@@H](O)[C@@H](O[C@H]1[C@H](O)[C@H]2O)O[C@@H]9CO)O[C@@H]8CO)O[C@@H]7CO)O[C@@H]6CO)O[C@@H]5CO)O[C@@H]4CO)C3=O)C[C@H]1O[C@@H]2O[C@H]3[C@H](O)[C@@H](O)[C@@H](O[C@H]4[C@H](O)[C@@H](O)[C@@H](O[C@H]5[C@H](O)[C@@H](O)[C@@H](O[C@H]6[C@H](O)[C@@H](O)[C@@H](O[C@H]7[C@H](O)[C@@H](O)[C@@H](O[C@H]8[C@H](O)[C@@H](O)[C@@H](O[C@H]1[C@H](O)[C@H]2O)O[C@@H]8CO)O[C@@H]7CO)O[C@@H]6CO)O[C@@H]5CO)O[C@@H]4CO)O[C@@H]3CO
2.0 ± 0.8 × 10^5 M^-1 | 10.6 ± 0.6 | < 0.5 | < 0.5 | – | – | – | – | no | 12.3 ± 2.2 × 10^5 M^-1 | no | yes | O=C(CN1C(=O)c2ccc3c4c(ccc(c24)C1=O)C(=O)N(CC(=O)NCCNC[C@H]1O[C@@H]2O[C@H]4[C@H](O)[C@@H](O)[C@@H](O[C@H]5[C@H](O)[C@@H](O)[C@@H](O[C@H]6[C@H](O)[C@@H](O)[C@@H](O[C@H]7[C@H](O)[C@@H](O)[C@@H](O[C@H]8[C@H](O)[C@@H](O)[C@@H](O[C@H]9[C@H](O)[C@@H](O)[C@@H](O[C@H]1[C@H](O)[C@H]2O)O[C@@H]9CO)O[C@@H]8CO)O[C@@H]7CO)O[C@@H]6CO)O[C@@H]5CO)O[C@@H]4CO)C3=O)NCCNC[C@H]1O[C@@H]2O[C@H]3[C@H](O)[C@@H](O)[C@@H](O[C@H]4[C@H](O)[C@@H](O)[C@@H](O[C@H]5[C@H](O)[C@@H](O)[C@@H](O[C@H]6[C@H](O)[C@@H](O)[C@@H](O[C@H]7[C@H](O)[C@@H](O)[C@@H](O[C@H]8[C@H](O)[C@@H](O)[C@@H](O[C@H]1[C@H](O)[C@H]2O)O[C@@H]8CO)O[C@@H]7CO)O[C@@H]6CO)O[C@@H]5CO)O[C@@H]4CO)O[C@@H]3CO
